Measured values as given in patent US8569580B2, “Transformed plants or algae with highly expressed chloroplast protein BPG2” (Riken, priority 2010, dated 2013).

Assays:
[1] = system: Arabidopsis thaliana seedlings; experiment: Measurement of chlorophyll a and b in seedlings; assay type: in vivo; conditions: 4 days, long days
Method: Arabidopsis thaliana Columbia-0 (Col-0) was used as the wild type. For cotyledon analysis, plants were germinated and grown on ½ MS medium (Duchefa) containing 1.5% sucrose and 0.9% phytoagar (Duchefa), with or without Brz. Germinated plants were transferred to soil. Conditions in the growth chamber were 16 h light (100 μE m^−2 sec^−1 white light)/8 h dark at 22° C. […] Plants were homogenized in 80% (v/v) acetone. The chlorophyll content of the centrifuged supernatants was determined at 645 nm and 663 nm. Chlorophyll a and b content were determined according to Arnon (1949): Chlorophyll a (μg/mg fresh weight)=(12.7A663−[…])/mg fresh weight Chlorophyll b (μg/mg fresh weight)=(22.9A645−4.67A663)/mg fresh weight

[2] = target: cytochrome P450 steroid C-22 hydroxylase encoded by the DWF4 gene (Arabidopsis thaliana, UniProt O64989); conditions: Asami et al., 2000, 2001; cited from earlier work
[3] = system: Arabidopsis bpg2-1; experiment: Hypocotyl phenotype when grown with Brz in the dark; assay type: in vivo, Arabidopsis thaliana; conditions: bpg2-1 grown with Brz in the dark (data not shown)
[4] = system: wild-type Arabidopsis; experiment: RT-PCR analysis of gene expression in dark-grown plants with Brz; assay type: in vivo, Arabidopsis thaliana; conditions: wild type grown in the dark 7 days with Brz 0.1, 1, 3 μM
Description: FIG. 6. Inducible expression of BPG2 by light and Brz. (a) RT-PCR analysis of BPG2 gene expression in different organs: root (R), stem (S), rosette leaf blade (LB), rosette leaf petiole (LP), cauline leaves (CL), and flowers (F) of wild-type Arabidopsis. ACT2 served as an internal control. (b) RT-PCR analysis of expression of BPG2, CAB, and rbcS after exposure to light. Total RNAs were extracted from the wild type germinated in the dark for 7 days and exposed to light for 0 (lane 1, 0), 0.5 (lane 2, 0.5), 1 (lane 3, 1), 2 (lane 4, 2), or 4 h (lane 5, 4), and from 7-day-old wild type under long-day conditions (16 h light and 8 h dark; lane 6, L). (c) RT-PCR analysis of expression of BPG2, CAB, rbcS, and DWF4 on Brz. Total RNAs were extracted from wild type germinated in the dark for 7 days with Brz.
Total RNA was extracted from wild type and bpg2 mutants with the RNeasy Plant mini kit (Qiagen). First strand cDNA was synthesized with Super Script III first-strand cDNA synthesis for RT (Invitrogen) and used as template. RT-PCR was performed with Ex Taq (Takara Bio). […]

[5] = system: Arabidopsis thaliana seedlings; experiment: Immunoblot analysis of chloroplast proteins; assay type: in vivo; conditions: 1 μM Brz
Method: of wild type, bpg2-1, and bpg2-2 were ground in liquid nitrogen and extracted by boiling with two volumes/fresh weight of 1× Laemmli buffer [50 mM Tris-HCl (pH 6.8), 100 mM DTT, 2% (w/v) SDS, 0.1% (w/v) bromophenol blue, and 10% (w/v) glycerol] for immunoblot analysis of Rubisco LSU, SSU, and LHCP. Total proteins for immunoblot analysis of D1 protein were prepared as described (Nakajima et al., 1996). Proteins were separated by SDS-PAGE (12.5% acrylamide separating gel). After electrophoresis, the proteins were stained with Coomassie Brilliant Blue or electrophoretically transferred to Hybond ECL nitrocellulose membrane (Amersham). After blocking overnight in TBS (20 mM Tris, 0.137 M NaCl, pH7.4, 0.05% polyoxyethlene sorbital monolaurate) buffer containing 5% non-fat milk (Morinagamilk) at room temperature, the membrane was incubated in TBS buffer containing non-fat milk with polyclonal antibody for 1 h at room temperature. After washing in TBS buffer, the blots were incubated with horseradish peroxidase-conjugated secondary antibody (Promega for Rubisco L/S and LHCP, and Cosmo Bio for D1) for 1 h at room temperature, and the complexes were made visible with ECL Immoblin Western (Millipore). The polyclonal antibody against the tobacco Rubisco L/S complex was provided by F. Sato of Kyoto University. The polyclonal antibody against D1 and LHCP protein was obtained from Agrisera. LAS-4000 mini (Fuji Film) was used for detection.
To analyze BPG2 function with BR on chloroplast protein accumulation, we performed immunoblot analysis seedlings of wild type and bpg2 mutants in the light with and without Brz (FIG. 10). In wild type, Rubisco LSU protein from Brz-treated seedlings increased about 1.4-fold and D1 protein increased about 1.3-fold compared to that of no-Brz seedlings (FIG. 10a, b). […] The effect of BPG2 deficiency on LHCP protein was much smaller than on D1 and Rubisco LSU.

[6] = system: Arabidopsis bpg2 mutants and wild type; experiment: Northern blot analysis of photosynthesis gene expression; assay type: in vivo, Arabidopsis thaliana; conditions: bpg2 mutants versus wild type, dark grown 5-day seedlings, 1 μM Brz
Method: FIG. 7. Chloroplast gene expression in bpg2 mutants. Total RNA was extracted from light grown 4-day-old seedlings (a), 3-week-old rosette leaves (b) and dark grown 5-day-seedling (c) of wild type (WT), bpg2-1, and bpg2-2. Northern blot analysis was carried out using probes for psbA and rbcL, encoded in the chloroplast, and rbcS, CAB, and 18S rRNA, encoded in the nucleus. (c) Seedlings were germinated with 0 or 1 μM Brz in the dark.
Total RNA was extracted from light grown 4-day-old seedlings, 3-week-old rosette leaves and dark grown 5-day-old seedlings of wild type, bpg2-1 and bpg2-2 with the RNeasy Plant Mini kit (Qiagen). Total RNA (3 μg) was separated in 1.2% agarose/0.66 M formaldehyde gels and blotted on Hybond N^+ (Amersham). After transfer, the ECL Direct Nucleic Acid Labeling and Detection system (GE Healthcare) was used for hybridization, and LAS-4000 mini (Fuji Film) was used for analysis of chemical fluorescence.

[7] = wild type, germinated in the light for 3 days

Chain of cytochrome P450 steroid C-22 hydroxylase encoded by the DWF4 gene (O64989 whole entry): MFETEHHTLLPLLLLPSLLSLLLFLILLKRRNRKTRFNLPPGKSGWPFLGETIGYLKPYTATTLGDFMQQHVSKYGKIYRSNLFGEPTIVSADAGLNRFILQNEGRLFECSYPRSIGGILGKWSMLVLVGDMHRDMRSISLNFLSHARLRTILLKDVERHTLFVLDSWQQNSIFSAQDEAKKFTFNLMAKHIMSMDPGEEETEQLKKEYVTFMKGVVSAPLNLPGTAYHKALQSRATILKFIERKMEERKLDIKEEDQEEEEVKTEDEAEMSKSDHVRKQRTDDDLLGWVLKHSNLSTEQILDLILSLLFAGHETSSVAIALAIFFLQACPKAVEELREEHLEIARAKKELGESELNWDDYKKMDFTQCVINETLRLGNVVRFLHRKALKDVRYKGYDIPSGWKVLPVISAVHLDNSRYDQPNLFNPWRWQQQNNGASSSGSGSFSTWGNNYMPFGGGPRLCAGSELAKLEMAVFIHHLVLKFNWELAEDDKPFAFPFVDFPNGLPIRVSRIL

CC(O)(c1ccccc1)C(Cc1ccc(Cl)cc1)n1cncn1 (centres unmarked) [Brz, brassinazole]
chlorophyll levels following Brz treatment ([1]; bpg2:35S-BPG2 transformants, Brz 1 μM): increase in chlorophyll levels
endogenous chlorophyll a and b levels ([1]; wild-type seedlings, Brz 0.1 and 1 μM, light): increased
binding to cytochrome P450 steroid C-22 hydroxylase (DWF4) [2]: binds directly
hypocotyl phenotype [3]: same short hypocotyl as the wild type plants
BPG2 gene expression [4]: actually increased
expression of CAB and rbcS [4]: increased
D1 protein of Brz-treated seedlings ([5]; bpg2 mutants, light 3 days): the same as in no-Brz seedlings
Rubisco LSU protein of Brz-treated seedlings ([5]; bpg2 mutants, light 3 days): the same as in no-Brz seedlings
induction of Rubisco LSU protein and D1 protein by Brz ([5]; clpB3 and clpC1 mutants, light 3 days): no induction
D1 protein, Brz-treated compared to no-Brz seedlings [5, 7]: about 1.3 fold
Rubisco LSU protein, Brz-treated compared to no-Brz seedlings [5, 7]: about 1.4 fold
Rubisco SSU protein ([5]; wild type, light 3 days): increased
nuclear encoded-LHCP protein ([5]; wild type, light 3 days): increased
expression of psbA, rbcL, CAB and rbcS [6]: to the same degree in bpg2 mutants as in wild type
